Read-outs that look alike come from different tables or passages of the source.
How the values were obtained:
HeLa cells [1] = assay: Apoptosis analysis (Annexin V/PI flow cytometry) in HeLa cells; type: cell-based, human; conditions: 6 h-treatment
Experimental: Apoptosis analysis was performed by using a Vybrant Apoptosis Assay Kit #2 (Molecular Probes, Invitrogen Corporation, Carlsbad, CA, U.S.A.) according to the manufacturer’s instructions. Briefly, cells were seeded at 1.2 × 10^6 cells/4 ml in a 4.5-cm dish, incubated for 24 hours, and treated with different concentrations of the extracts or sinapinic acid for 6 hours. Cells were harvested by trypsinization, washed with cold PBS, and resuspended in the Annexin-binding buffer. Cell density was determined and diluted in the annexin-binding buffer to 10^5 cells per assay. Cells were incubated with Alexa Fluor 488 Annexin V and Propidium iodide (PI) at room temperature for 15 minutes. Following the incubation, cells were analyzed by flow cytometry using a Beckman Coulter Cytomics FC500 MPL flow cytometry (Beckman Coulter, Miami, FL, U.S.A.). The flow cytometry results were confirmed by viewing the cells under a fluorescence microscope.

[2] = tested on: histone H4 acetylation in HeLa cells; assay: HDAC inhibition in HeLa cells: histone acetylation by AUT gel electrophoresis; type: cell-based, human; conditions: 6 h-treatment
Experimental: Cells grown in a 4.5-cm dish were treated with either solvent control or the sample for 6 hours, and the histone proteins were then isolated according to the Abcam’s protocol (Abcam Inc., Cambridge, MA, U.S.A.) with some modifications. In brief, cells were harvested by trypsinization, washed with PBS, and then resuspended in Triton Extraction Buffer (TEB; PBS containing 0.5% (v/v) Triton X-100, 2 mM phenylmethylsulfonyl fluoride, 0.02% (w/v) NaN3) at a cell density of 10^5 cells/ml. The cells were incubated on ice and agitated periodically for 10 minutes. The suspension was centrifuged at 7,500 rpm for 10 minutes at 4°C to spin down the nuclei and the supernatant was discarded. The nuclei pellet was resuspended in 0.2 M HCl at a density of 10^6 nuclei/ml and incubated overnight at 4°C. […] Protein concentration was measured by using a Bio-Rad protein assay kit (Bio-Rad Laboratories, Hercules, CA, U.S.A.) based on the Bradford method.
Inhibition on acetylation of cellular histones was analyzed by gel electrophoresis using acid urea/Triton-X-100 (AUT) gels. […]
HDAC inhibition by ethanolic crude extract, phenolic-rich extract and sinapinic acid in HeLa cells was analyzed by AUT gel electrophoresis, whereby each cellular core histone (H2A, H2B, H3, and H4) with different extent of acetylation can be separated. […]

Jurkat cells = assay: Antiproliferative activity assay (WST-8), Jurkat cells; type: cell-based, human; conditions: compounds
Experimental: (§1) Cells were seeded in a 96-well plate at cell density of 10^4 cells/well and incubated for 24 hours. Sample groups were treated with different concentrations of H. formicarum Jack. rhizome extracts (0.5-3.0 mg/mL), sinapinic acid (0.5-3.0 mM), or sodium butyrate (0.5-3.0 mM) for 24, 48 and 72 hours. Vehicle control groups were added with DMSO (final concentration of 0.05%) or double distilled water. Cell proliferation assays were performed using a WST-8 Cell Proliferation Assay Kit (BioVision, Mountain View, CA, U.S.A.) according to the manufacturer’s instructions. Absorbance (A) was measured at 415 nm using a microtiter plate reader (Bio-Rad Laboratories, Hercules, CA, U.S.A.). The absorbance at 655 nm was used as a reference wavelength. Cell proliferation or cell growth was determined as a percentage of the vehicle control by an equation of;
(§2) %CellProliferation=controlA‒sampleA/controlA×100.

[3] = target: HDAC enzymes (HeLa nuclear extract); assay: In vitro HDAC inhibition activity assay (Fluor-de-Lys kit); type: biochemical, human
Experimental: HDAC inhibitory activity of the H. formicarum Jack. rhizome extracts, sinapinic acid (Sigma) and sodium butyrate (Sigma) was determined by using the Fluor-de-Lys HDAC activity assay kit (Biomol, Enzo Life Sciences International, Inc., Plymount Meeting, PA, U.S.A.). The assay was performed according to the manufacturer’s instructions. Fluorescence was measured using a spectra Max Gemini XPS microplate spectrofluorometer (Molecular Devices, Sunnyvale, CA, U.S.A.) with excitation at 360 nm and emission at 460 nm. Inhibition of HDAC activity was monitored by a decrease in fluorescence signal.
The effect of various polarity extracts including fractionated solvent extracts from hexane soluble fraction, ethyl acetate soluble fraction, methanol soluble fraction and also ethanolic crude extract on in vitro HDAC activity was examined by using HeLa nuclear extract as a source of the HDAC enzymes.

HeLa cells [4] = assay: Antiproliferative activity assay (WST-8), HeLa cells; type: cell-based, human; conditions: compounds
Experimental: as §1, §2

HCT116 cells = assay: Antiproliferative activity assay (WST-8), HCT116 cells; type: cell-based, human; conditions: compounds
Experimental: as §1, §2

MCF-7 cells = assay: Antiproliferative activity assay (WST-8), MCF-7 cells; type: cell-based, human; conditions: compounds
Experimental: as §1, §2

HT29 cells = assay: Antiproliferative activity assay (WST-8), HT29 cells; type: cell-based, human; conditions: compounds
Experimental: as §1, §2

Vero cells = assay: Antiproliferative activity assay (WST-8), Vero cells; type: cell-based; conditions: compounds
Experimental: as §1, §2

[5] = 72 h, read-out: IC50 values, HeLa cells 72 h

SMILES: CC[C@@]1(O)C(=O)OCc2c1cc1n(c2=O)Cc2cc3ccccc3nc2-1 [Camptothecin]
- Number of Late Apoptotic cells (%) (HeLa cells [1]; 0.1 mg/mL): 3.55 ± 1.06%

SMILES: COc1cc(/C=C/C(=O)O)cc(OC)c1O [Sinapinic acid, sinapinic acid]
- Histone H4 acetylation in HeLa cells (in words) [2]: clearly increased di- and tri-acetylated H4 molecules
- IC50 (Jurkat cells; Homo sapiens, Jurkat, 24 h, read-out: IC50 values, Jurkat cells 24 h): > 3 mM
- IC50 (Jurkat cells; Homo sapiens, Jurkat, 48 h, read-out: IC50 values, Jurkat cells 48 h): > 3 mM
- IC50 (Jurkat cells; Homo sapiens, Jurkat, 72 h, read-out: IC50 values, Jurkat cells 72 h): 2.8 ± 0.12 mM
- IC50 [3]: 2.27 ± 0.13 mM
- IC50 (HeLa cells [4]; Homo sapiens, HeLa, 24 h, 24 h, read-out: IC50 values, HeLa cells 24 h): 2.35 ± 0.03 mM
- IC50 (HeLa cells [4]; Homo sapiens, HeLa, 48 h, 48 h, read-out: IC50 values, HeLa cells 48 h): 2.04 ± 0.06 mM
- IC50 (HeLa cells [4]; Homo sapiens, HeLa, 72 h, 72 h, read-out: IC50 values, HeLa cells 72 h): 0.91 ± 0.02 mM
- IC50 (HeLa cells [4]; [5]): 0.9 ± 0.02 mM
- Number of Early Apoptotic cells (%) (HeLa cells [1]; 4.5 mM): 4.40 ± 1.27%
- Number of Late Apoptotic cells (%) (HeLa cells [1]; 4.5 mM): 1.75 ± 0.78%
- Number of Early Apoptotic cells (%) (HeLa cells [1]; 9.0 mM): 8.40 ± 1.55%
- Number of Late Apoptotic cells (%) (HeLa cells [1]; 9.0 mM): 3.25 ± 1.06%
- Number of Early Apoptotic cells (%) (HeLa cells [1]; 9.0 mM, listed as sinapinic acid): 8.4%
- IC50 (HCT116 cells; Homo sapiens, HCT-116, 24 h, read-out: IC50 values, HCT116 cells 24 h): > 3 mM
- IC50 (HCT116 cells; Homo sapiens, HCT-116, 48 h, read-out: IC50 values, HCT116 cells 48 h): 2.2 ± 0.15 mM
- IC50 (HCT116 cells; Homo sapiens, HCT-116, 72 h, read-out: IC50 values, HCT116 cells 72 h): 2.1 ± 0.06 mM
- IC50 (MCF-7 cells; Homo sapiens, MCF7, 24 h, read-out: IC50 values, MCF-7 cells 24 h): > 3 mM
- IC50 (MCF-7 cells; Homo sapiens, MCF7, 48 h, read-out: IC50 values, MCF-7 cells 48 h): > 3 mM
- IC50 (MCF-7 cells; Homo sapiens, MCF7, 72 h, read-out: IC50 values, MCF-7 cells 72 h): > 3 mM
- IC50 (HT29 cells; Homo sapiens, HT-29, 24 h, read-out: IC50 values, HT29 cells 24 h): 2.97 ± 0.05 mM
- IC50 (HT29 cells; Homo sapiens, HT-29, 48 h, read-out: IC50 values, HT29 cells 48 h): 2.2 ± 0.03 mM
- IC50 (HT29 cells; Homo sapiens, HT-29, 72 h, read-out: IC50 values, HT29 cells 72 h): 1.6 ± 0.02 mM
- IC50 (Vero cells; Chlorocebus sabaeus, Vero, 24 h, read-out: IC50 values, Vero cells 24 h): > 3 mM
- IC50 (Vero cells; Chlorocebus sabaeus, Vero, 48 h, read-out: IC50 values, Vero cells 48 h): > 3 mM
- IC50 (Vero cells; Chlorocebus sabaeus, Vero, 72 h, read-out: IC50 values, Vero cells 72 h): > 3 mM

SMILES: CCCC(=O)[O-].[Na+] [Sodium butyrate, sodium butyrate]
- IC50 (Jurkat cells; 24 h, read-out: IC50 values, Jurkat cells 24 h): > 3 mM
- IC50 (Jurkat cells; 48 h, read-out: IC50 values, Jurkat cells 48 h): 2.36 ± 0.19 mM
- IC50 (Jurkat cells; 72 h, read-out: IC50 values, Jurkat cells 72 h): 1.5 ± 0.3 mM
- IC50 [3]: 0.97 ± 0.07 mM
- IC50 (HeLa cells [4]; 24 h, read-out: IC50 values, HeLa cells 24 h): 2.63 ± 0.06 mM
- IC50 (HeLa cells [4]; 48 h, read-out: IC50 values, HeLa cells 48 h): 2.22 ± 0.13 mM
- IC50 (HeLa cells [4]; 72 h, listed as sodium butyrate, read-out: IC50 values, HeLa cells 72 h): 1.22 ± 0.03 mM
- IC50 (HeLa cells [4]; [5]): 1.2 ± 0.03 mM
- Number of Early Apoptotic cells (%) (HeLa cells [1]; 4.5 mM): 3.75 ± 1.06%
- Number of Late Apoptotic cells (%) (HeLa cells [1]; 4.5 mM): 1.00 ± 0.28%
- Number of Early Apoptotic cells (%) (HeLa cells [1]; 9.0 mM): 7.60 ± 1.27%
- Number of Late Apoptotic cells (%) (HeLa cells [1]; 9.0 mM): 2.05 ± 1.06%
- Number of Early Apoptotic cells (%) (HeLa cells [1]; 9.0 mM, listed as sodium butyrate): 7.6%
- IC50 (HCT116 cells; 24 h, read-out: IC50 values, HCT116 cells 24 h): > 3 mM
- IC50 (HCT116 cells; 48 h, read-out: IC50 values, HCT116 cells 48 h): 2.2 ± 0.2 mM
- IC50 (HCT116 cells; 72 h, read-out: IC50 values, HCT116 cells 72 h): 2 ± 0.05 mM
- IC50 (MCF-7 cells; 24 h, read-out: IC50 values, MCF-7 cells 24 h): > 3 mM
- IC50 (MCF-7 cells; 48 h, read-out: IC50 values, MCF-7 cells 48 h): > 3 mM
- IC50 (MCF-7 cells; 72 h, read-out: IC50 values, MCF-7 cells 72 h): > 3 mM
- IC50 (HT29 cells; 24 h, read-out: IC50 values, HT29 cells 24 h): > 3 mM
- IC50 (HT29 cells; 48 h, read-out: IC50 values, HT29 cells 48 h): > 3 mM
- IC50 (HT29 cells; 72 h, read-out: IC50 values, HT29 cells 72 h): 2.57 ± 0.03 mM
- IC50 (Vero cells; 24 h, read-out: IC50 values, Vero cells 24 h): > 3 mM
- IC50 (Vero cells; 48 h, read-out: IC50 values, Vero cells 48 h): > 3 mM
- IC50 (Vero cells; 72 h, read-out: IC50 values, Vero cells 72 h): > 3 mM
